The target of experiment [1] is MAP/microtubule affinity-regulating kinase 3 (Homo sapiens, UniProt P27448). Format: functional.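 Also: MARK3 affinity measured as one member of a kinome panel.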
In experiment [2] the target is LIM domain kinase 1 (Homo sapiens, UniProt P53667). As to the kind of experiment: Navigating the Kinome. Panel member name: LIMK1. Type of experiment: functional.
The target in experiment [3] is Serine/threonine-protein kinase Chk1 (Homo sapiens, UniProt O14757). Format: functional.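 Also: measured as one member of a kinome-wide kinase profiling panel.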
Chain of Serine/threonine-protein kinase Chk1 (O14757 whole entry): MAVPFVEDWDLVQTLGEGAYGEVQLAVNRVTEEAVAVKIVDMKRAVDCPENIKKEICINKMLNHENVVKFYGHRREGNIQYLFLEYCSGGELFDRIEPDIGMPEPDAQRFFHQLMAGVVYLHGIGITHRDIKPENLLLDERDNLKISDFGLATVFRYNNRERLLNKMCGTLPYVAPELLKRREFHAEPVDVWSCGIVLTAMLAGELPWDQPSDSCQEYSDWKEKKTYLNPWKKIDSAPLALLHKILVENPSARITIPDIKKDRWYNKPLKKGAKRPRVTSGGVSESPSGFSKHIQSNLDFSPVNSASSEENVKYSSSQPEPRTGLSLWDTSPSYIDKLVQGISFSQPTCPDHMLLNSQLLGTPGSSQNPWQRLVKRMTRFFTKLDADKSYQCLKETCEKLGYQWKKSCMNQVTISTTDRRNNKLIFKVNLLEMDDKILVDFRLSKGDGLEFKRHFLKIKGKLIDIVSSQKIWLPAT
The test system of experiment [4] is P388/ADR. As to the kind of experiment: cells. Type of experiment: functional. The note with it: Mus musculus.
A short description of experiment [5]: cytotoxicity toward DRD oncogenic fibroblasts, dose response, cell-based, non-viral oncogenic, luminescence (AID 1934). Type of experiment: functional. Conditions: Homo sapiens.
Experiment [6] has as its system SN12K1. As to the kind of experiment: cells. Format: functional. Conditions: Homo sapiens.
Experiment [7] has as its target Beta-galactosidase (Escherichia coli, UniProt Q8VNN2). As to the kind of experiment: beta-galactosidase enzyme inhibitors and activators, dose response, artefact control for CCR6 antagonist project, biochemical, E. coli enzyme, set 3 (AID 504712). Type of experiment: functional.
The target of experiment [8] is Genome polyprotein (dengue virus type 2, UniProt P29990). The experiment is described as follows: Dengue-2 NS5 methyltransferase inhibitors, primary screen, biochemical, confirmation dose response (AID 588689). Format: functional.
Chain of Genome polyprotein (P29990 2492-3391 limits assumed): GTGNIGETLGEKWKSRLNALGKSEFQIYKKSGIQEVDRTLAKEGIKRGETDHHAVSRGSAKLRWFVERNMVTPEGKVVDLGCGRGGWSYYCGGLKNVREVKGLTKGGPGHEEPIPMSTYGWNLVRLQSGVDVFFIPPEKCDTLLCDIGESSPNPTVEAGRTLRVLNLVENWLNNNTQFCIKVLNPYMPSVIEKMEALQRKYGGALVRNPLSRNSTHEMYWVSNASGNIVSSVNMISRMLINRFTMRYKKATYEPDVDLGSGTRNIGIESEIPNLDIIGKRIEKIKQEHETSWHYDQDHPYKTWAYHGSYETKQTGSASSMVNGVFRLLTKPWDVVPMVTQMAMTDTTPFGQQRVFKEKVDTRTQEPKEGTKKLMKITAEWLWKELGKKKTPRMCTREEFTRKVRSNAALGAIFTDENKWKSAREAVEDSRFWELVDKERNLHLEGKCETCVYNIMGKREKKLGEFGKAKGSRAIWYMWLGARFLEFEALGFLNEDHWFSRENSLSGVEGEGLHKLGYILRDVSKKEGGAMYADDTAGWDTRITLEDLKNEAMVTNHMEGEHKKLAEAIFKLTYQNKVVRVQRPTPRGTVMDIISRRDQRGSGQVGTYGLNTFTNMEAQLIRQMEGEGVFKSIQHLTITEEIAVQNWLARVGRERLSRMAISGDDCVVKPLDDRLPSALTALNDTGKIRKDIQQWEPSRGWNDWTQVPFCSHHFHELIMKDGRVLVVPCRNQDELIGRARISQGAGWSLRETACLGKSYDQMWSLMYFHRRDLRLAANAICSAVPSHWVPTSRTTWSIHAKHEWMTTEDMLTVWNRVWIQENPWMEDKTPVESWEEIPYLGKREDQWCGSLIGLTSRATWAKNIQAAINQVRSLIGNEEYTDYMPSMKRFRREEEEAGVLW
Experiment [9] is described as follows: ZM109 Env clade C HIV-1 fusion inhibitors, dose response, HeLa effector, CEM target cells, luciferase, cherry-pick (AID 652058). Format: functional, cell-based.
Experiment [10] is described as follows: off-target signal loss in HeLa-CEM21 co-culture – HeLa F-luc CTL cells, cherry-picked, counter-screen for HIV-1 Env fusion inhibitor project, dose response (AID 652040).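 Also: potency for signal decrease marking cytotoxic or nonspecific inhibition.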 Type of experiment: functional, cell-based. For orientation: The purpose of a counterscreen is to sort out artefacts and off-target activity.
Experiment [11] deals with Heat shock protein HSP 90-alpha (Homo sapiens, UniProt P07900). The experiment is described as follows: Luminescence-based dose response biochemical high throughput screening assay for inhibitors of the Heat Shock Protein 90 (HSP90). [Related pubchem assays: 1831 (Summary AID.), 1846 (Confirmation screen.), 1789 (Primary screen.)].
Experiment [12] in a line: inhibitors of HIV Env-driven cell fusion, dose response, cherry-pick (AID 652057). Type of experiment: functional, cell-based.

SMILES strings stand for the structures. Activity calls are given as the source filed them. Where only a bound is given, the exact number is not on record here.

Chain of LIM domain kinase 1 (P53667 whole entry, the tested form may be a part): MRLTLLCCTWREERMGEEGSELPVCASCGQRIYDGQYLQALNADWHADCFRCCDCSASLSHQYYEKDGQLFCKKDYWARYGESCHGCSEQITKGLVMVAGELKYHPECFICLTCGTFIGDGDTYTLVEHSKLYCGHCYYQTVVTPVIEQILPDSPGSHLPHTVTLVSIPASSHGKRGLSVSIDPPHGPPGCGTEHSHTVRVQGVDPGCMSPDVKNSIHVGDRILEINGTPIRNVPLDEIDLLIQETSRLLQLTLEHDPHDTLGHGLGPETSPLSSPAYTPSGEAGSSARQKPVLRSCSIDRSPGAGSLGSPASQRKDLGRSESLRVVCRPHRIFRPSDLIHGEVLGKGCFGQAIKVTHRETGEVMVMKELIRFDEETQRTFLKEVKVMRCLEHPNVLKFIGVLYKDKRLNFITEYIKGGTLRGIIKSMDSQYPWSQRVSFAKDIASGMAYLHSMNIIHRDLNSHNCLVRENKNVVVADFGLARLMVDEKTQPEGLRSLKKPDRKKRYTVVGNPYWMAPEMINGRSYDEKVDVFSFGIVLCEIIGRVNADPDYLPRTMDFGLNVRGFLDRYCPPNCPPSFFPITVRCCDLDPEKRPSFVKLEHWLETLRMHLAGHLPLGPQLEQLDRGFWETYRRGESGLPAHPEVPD
Chain of MAP/microtubule affinity-regulating kinase 3 (P27448 whole entry, the tested form may be a part): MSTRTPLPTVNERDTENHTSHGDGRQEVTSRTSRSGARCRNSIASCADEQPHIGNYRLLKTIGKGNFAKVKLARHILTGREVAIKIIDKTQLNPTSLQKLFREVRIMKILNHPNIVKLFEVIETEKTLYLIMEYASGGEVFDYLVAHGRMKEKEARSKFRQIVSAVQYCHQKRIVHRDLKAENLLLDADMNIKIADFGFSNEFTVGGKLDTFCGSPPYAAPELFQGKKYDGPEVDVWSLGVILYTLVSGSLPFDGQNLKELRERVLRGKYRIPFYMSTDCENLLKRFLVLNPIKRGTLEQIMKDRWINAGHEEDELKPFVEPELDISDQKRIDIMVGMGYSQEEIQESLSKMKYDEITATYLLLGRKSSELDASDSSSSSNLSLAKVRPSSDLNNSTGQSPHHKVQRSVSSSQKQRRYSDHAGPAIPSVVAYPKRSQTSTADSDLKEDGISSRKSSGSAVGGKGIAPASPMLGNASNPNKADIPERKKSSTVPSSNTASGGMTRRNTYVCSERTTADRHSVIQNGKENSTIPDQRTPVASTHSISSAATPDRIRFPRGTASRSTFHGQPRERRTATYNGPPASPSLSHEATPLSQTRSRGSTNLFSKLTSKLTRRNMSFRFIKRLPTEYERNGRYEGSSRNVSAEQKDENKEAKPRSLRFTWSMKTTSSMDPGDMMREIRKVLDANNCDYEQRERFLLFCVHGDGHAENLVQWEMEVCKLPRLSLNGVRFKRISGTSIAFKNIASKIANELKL
Chain of Beta-galactosidase (Q8VNN2 whole entry): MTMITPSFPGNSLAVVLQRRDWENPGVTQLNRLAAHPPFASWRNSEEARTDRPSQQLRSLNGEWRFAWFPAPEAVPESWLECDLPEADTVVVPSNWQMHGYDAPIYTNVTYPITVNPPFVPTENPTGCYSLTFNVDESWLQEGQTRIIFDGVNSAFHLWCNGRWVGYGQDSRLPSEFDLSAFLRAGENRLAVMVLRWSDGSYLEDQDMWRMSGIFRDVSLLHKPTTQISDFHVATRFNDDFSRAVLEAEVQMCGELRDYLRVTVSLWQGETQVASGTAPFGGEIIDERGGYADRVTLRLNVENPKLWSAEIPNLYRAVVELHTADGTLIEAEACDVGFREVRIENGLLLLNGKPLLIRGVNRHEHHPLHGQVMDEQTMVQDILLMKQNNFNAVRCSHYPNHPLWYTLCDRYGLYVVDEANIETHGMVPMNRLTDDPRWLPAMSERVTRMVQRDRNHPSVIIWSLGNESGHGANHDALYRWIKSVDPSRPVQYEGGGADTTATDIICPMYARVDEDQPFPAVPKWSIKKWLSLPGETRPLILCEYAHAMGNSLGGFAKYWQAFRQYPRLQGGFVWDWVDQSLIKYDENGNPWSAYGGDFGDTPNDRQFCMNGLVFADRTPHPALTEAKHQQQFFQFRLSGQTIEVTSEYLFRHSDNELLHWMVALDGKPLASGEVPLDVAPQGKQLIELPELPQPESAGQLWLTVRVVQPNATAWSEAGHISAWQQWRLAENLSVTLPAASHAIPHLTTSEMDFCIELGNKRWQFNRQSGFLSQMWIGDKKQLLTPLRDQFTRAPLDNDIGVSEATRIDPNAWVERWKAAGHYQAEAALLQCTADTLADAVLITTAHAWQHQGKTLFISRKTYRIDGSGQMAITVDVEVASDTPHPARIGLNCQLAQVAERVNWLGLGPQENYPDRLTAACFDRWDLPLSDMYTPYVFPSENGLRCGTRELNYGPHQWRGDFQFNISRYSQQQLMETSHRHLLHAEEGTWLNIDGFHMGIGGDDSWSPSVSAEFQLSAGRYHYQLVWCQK

As a reminder, the Ki is a measure of affinity in units of concentration, obtained from inhibition or displacement. Regarding `CCC1CC(NS(=O)(=O)C2CC2)CC1c1ncc2cnc3[nH]ccc3n12` (configuration not stated), the Ki in experiment [1] was 158 nM (active).

With `O=C(Nc1cccc(C(F)(F)F)n1)Nc1ccnc2cc(OC(F)F)ccc12`, the Ki in experiment [2] and in experiment [3] was > 3.16 µM (inactive) each time.

As a reminder, the GI50 is the concentration that inhibits growth by half. One may read the EC50 as the midpoint of the concentration-response curve. Take `COC(=O)c1nc(-c2ccc3c(n2)C(=O)C(=N)C(OC)=C3O)c(N)c(-c2ccc(OC)c(OC)c2O)c1C`: the GI50 in experiment [4] is 1.4 µM (inactive); in experiment [6] it was 537 nM (active). Moreover, the EC50 in experiment [5] was 13.9 µM (active).

By IC50 is commonly meant the concentration at which inhibition is half-maximal. Usually AC50 stands for the concentration giving half of the maximal activity seen. Take `Cc1cc(C)c(S(=O)(=O)/N=C2\C=C(Nc3ccc(C(=O)O)cc3)C(=O)c3ccccc32)c(C)c1`: the values for the IC50 in experiment [7], in experiment [8] and in experiment [11] were 36.1 µM (active), 21.2 µM (active) and 1.68 µM (active), respectively. The AC50 was 6.51 µM (active) in [9], 17.2 µM (active) in [10] and 12.4 µM (active) in [12].

For the origin of these results see ChEMBL document CHEMBL1201862, “PubChem BioAssay data set” (2004).
